Results from PubChem BioAssay AID1259407 (Chemical Carcinogenesis Research Information System (CCRIS), 2018).
The source made the active and inactive calls. How the calls were made is not given here.

Tested on: CCRIS mutagenicity, Ames/micronucleus/aberration tests
Assay: CCRIS mutagenicity studies
[1] = Test System: AMES SALMONELLA TYPHIMURIUM, Strain/Indicator: TA98, Metabolic Activation: NONE, Method: PREINCUBATION
[2] = Test System: AMES SALMONELLA TYPHIMURIUM, Strain/Indicator: TA100, Metabolic Activation: NONE, Method: PREINCUBATION
[3] = Test System: AMES SALMONELLA TYPHIMURIUM, Strain/Indicator: TA1535, Metabolic Activation: NONE, Method: PREINCUBATION
[4] = Test System: AMES SALMONELLA TYPHIMURIUM, Strain/Indicator: TA1537, Metabolic Activation: NONE, Method: PREINCUBATION

Structure (SMILES): COc1ccc(N=[N+]([O-])c2ccc(OC)cc2)cc1
- mutagenic call (Test System: AMES SALMONELLA TYPHIMURIUM, Strain/Indicator: TA97, Metabolic Activation: HAMSTER, LIVER, S-9, AROCLOR 1254 (5%), Method: PREINCUBATION): inactive; negative
- mutagenic call (Test System: AMES SALMONELLA TYPHIMURIUM, Strain/Indicator: TA97, Metabolic Activation: HAMSTER, LIVER, S-9, AROCLOR 1254 (10 OR 30%), Method: PREINCUBATION): active; positive
- mutagenic call (Test System: AMES SALMONELLA TYPHIMURIUM, Strain/Indicator: TA97, Metabolic Activation: NONE, Method: PREINCUBATION): inactive; negative
- mutagenic call (Test System: AMES SALMONELLA TYPHIMURIUM, Strain/Indicator: TA97, Metabolic Activation: RAT, LIVER, S-9, AROCLOR 1254 (5 OR 10%), Method: PREINCUBATION): active; positive
- mutagenic call (Test System: AMES SALMONELLA TYPHIMURIUM, Strain/Indicator: TA97, Metabolic Activation: RAT, LIVER, S-9, AROCLOR 1254 (30%), Method: PREINCUBATION): inactive; negative
- mutagenic call (Test System: AMES SALMONELLA TYPHIMURIUM, Strain/Indicator: TA98, Metabolic Activation: HAMSTER, LIVER, S-9, AROCLOR 1254 (30%), Method: PREINCUBATION): inactive; negative
- mutagenic call [1]: inactive; negative
- mutagenic call (Test System: AMES SALMONELLA TYPHIMURIUM, Strain/Indicator: TA98, Metabolic Activation: RAT, LIVER, S-9, AROCLOR 1254 (30%), Method: PREINCUBATION): inactive; negative
- mutagenic call (Test System: AMES SALMONELLA TYPHIMURIUM, Strain/Indicator: TA100, Metabolic Activation: HAMSTER, LIVER, S-9, AROCLOR 1254 (30%), Method: PREINCUBATION): inactive; negative
- mutagenic call [2]: inactive; negative
- mutagenic call (Test System: AMES SALMONELLA TYPHIMURIUM, Strain/Indicator: TA100, Metabolic Activation: RAT, LIVER, S-9, AROCLOR 1254 (30%), Method: PREINCUBATION): inactive; negative
- mutagenic call (Test System: AMES SALMONELLA TYPHIMURIUM, Strain/Indicator: TA1535, Metabolic Activation: HAMSTER, LIVER, S-9, AROCLOR 1254 (30%), Method: PREINCUBATION): inactive; negative
- mutagenic call [3]: inactive; negative
- mutagenic call (Test System: AMES SALMONELLA TYPHIMURIUM, Strain/Indicator: TA1535, Metabolic Activation: RAT, LIVER, S-9, AROCLOR 1254 (30%), Method: PREINCUBATION): inactive; negative
- mutagenic call (Test System: AMES SALMONELLA TYPHIMURIUM, Strain/Indicator: TA1537, Metabolic Activation: HAMSTER, LIVER, S-9, AROCLOR 1254 (5 OR 10%), Method: PREINCUBATION): inactive; negative
- mutagenic call (Test System: AMES SALMONELLA TYPHIMURIUM, Strain/Indicator: TA1537, Metabolic Activation: HAMSTER, LIVER, S-9, AROCLOR 1254 (30%), Method: PREINCUBATION): active; positive
- mutagenic call [4]: inactive; negative

Structure (SMILES): Cc1c2ccccc2cc2c3c(ccc12)[C@@H](O)[C@H](O)C=C3
- mutagenic call (Test System: CHINESE HAMSTER V-79, Strain/Indicator: V-79/8-AZAGUANINE, Metabolic Activation: NONE, Method: STANDARD PLATE): active; positive

Structure (SMILES): CC(Cl)C(Br)CBr (stereo unspecified)
- mutagenic call (Test System: AMES SALMONELLA TYPHIMURIUM, Strain/Indicator: TA100, Metabolic Activation: RAT, LIVER, MICROSOMES, PHENOBARBITAL, Method: PREINCUBATION): active; positive
- mutagenic call (Test System: AMES SALMONELLA TYPHIMURIUM, Strain/Indicator: TA100, Metabolic Activation: RAT, LIVER, MICROSOMES, Method: PREINCUBATION): active; positive

Structure (SMILES): CCC(=O)N(O)c1ccc(/C=C/c2ccccc2)cc1
- mutagenic call [1]: inactive; negative
- mutagenic call (Test System: AMES SALMONELLA TYPHIMURIUM, Strain/Indicator: TA98, Metabolic Activation: RAT, LIVER, CYTOSOL, Method: PREINCUBATION): active; positive
- mutagenic call (Test System: AMES SALMONELLA TYPHIMURIUM, Strain/Indicator: TA98, Metabolic Activation: RAT, LIVER, MICROSOMES, Method: PREINCUBATION): active; positive

Structure (SMILES): COC(C)CCO (stereo unspecified)
- mutagenic call [1]: inactive; negative
- mutagenic call (Test System: AMES SALMONELLA TYPHIMURIUM, Strain/Indicator: TA98, Metabolic Activation: RAT LIVER S-9, PHENOBARBITAL AND BETA-NAPHTHOFLAVONE, Method: PREINCUBATION): inactive; negative
- mutagenic call [2]: inactive; negative
- mutagenic call (Test System: AMES SALMONELLA TYPHIMURIUM, Strain/Indicator: TA100, Metabolic Activation: RAT LIVER S-9, PHENOBARBITAL AND BETA-NAPHTHOFLAVONE, Method: PREINCUBATION): inactive; negative
- mutagenic call [3]: inactive; negative
- mutagenic call (Test System: AMES SALMONELLA TYPHIMURIUM, Strain/Indicator: TA1535, Metabolic Activation: RAT LIVER S-9, PHENOBARBITAL AND BETA-NAPHTHOFLAVONE, Method: PREINCUBATION): inactive; negative
- mutagenic call [4]: inactive; negative
- mutagenic call (Test System: AMES SALMONELLA TYPHIMURIUM, Strain/Indicator: TA1537, Metabolic Activation: RAT LIVER S-9, PHENOBARBITAL AND BETA-NAPHTHOFLAVONE, Method: PREINCUBATION): inactive; negative
- mutagenic call (Test System: E.COLI, Strain/Indicator: WP2UVRA/PKM101, Metabolic Activation: NONE, Method: PREINCUBATION): inactive; negative
- mutagenic call (Test System: E.COLI, Strain/Indicator: WP2UVRA/PKM101, Metabolic Activation: RAT LIVER S-9, PHENOBARBITAL AND BETA-NAPHTHOFLAVONE, Method: PREINCUBATION): inactive; negative

Structure (SMILES): COC(=O)[C@H](C)CN=[N+]=[N-]
- mutagenic call (Test System: AMES SALMONELLA TYPHIMURIUM, Strain/Indicator: TA100, Metabolic Activation: RAT, LIVER, S-9, PCB, Method: PREINCUBATION): active; positive

Structure (SMILES): CCc1cccc2cccnc12
- mutagenic call (Test System: AMES SALMONELLA TYPHIMURIUM, Strain/Indicator: TA100, Metabolic Activation: S-9, Method: PREINCUBATION): active; positive

Structure (SMILES): C[C@H](Br)C(=O)NCc1ccccc1
- mutagenic call (Test System: AMES SALMONELLA TYPHIMURIUM, Strain/Indicator: TA100, Metabolic Activation: NONE, Method: STANDARD PLATE): active; positive
